“And” between values parts separate entries of the source, which are not always exact repeats. Equal entries are not always repeated.
Tested on: 377384-186-R-J1-PDC complex spheroid viability
Experiment: Anticancer human tumor 377384-186-R-J1-PDC patient-derived pancreatic carcinoma cell line growth inhibition [CLK]
Conditions: for viability, T/C: stronger effect = lower value; active = viability on the fitted dose curve at most 10% of control; inactive = the rest
Outline: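 Patient-derived tumor cells grown as complex spheroids with HUVEC endothelial cells and mesenchymal stem cells, treated with drug combinations. Concentrations descend in half-log steps from near clinical Cmax, or from 10 microM if Cmax unknown.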

[1] = curve of first compound, second compound 0.0316 µM
[2] = curve of first compound, second compound 0.1 µM
[3] = curve of first compound, second compound 0.316 µM
[4] = curve of first compound, second compound 1 µM
[5] = curve of first compound, second compound 3.16 µM
[6] = curve of first compound, second compound 10 µM
[7] = second compound 0.0316 µM, first compound 0.0316 µM
[8] = second compound 0.0316 µM, first compound 0.1 µM
[9] = second compound 0.0316 µM, first compound 0.316 µM
[10] = second compound 0.0316 µM, first compound 1 µM
[11] = second compound 0.0316 µM, first compound 3.16 µM
[12] = second compound 0.0316 µM, first compound 10 µM
[13] = second compound 0.1 µM, first compound 0.0316 µM
[14] = second compound 0.1 µM, first compound 0.1 µM
[15] = second compound 0.1 µM, first compound 0.316 µM
[16] = second compound 0.1 µM, first compound 1 µM
[17] = second compound 0.1 µM, first compound 3.16 µM
[18] = second compound 0.1 µM, first compound 10 µM
[19] = second compound 0.316 µM, first compound 0.0316 µM
[20] = second compound 0.316 µM, first compound 0.1 µM
[21] = second compound 0.316 µM, first compound 0.316 µM
[22] = second compound 0.316 µM, first compound 1 µM
[23] = second compound 0.316 µM, first compound 3.16 µM
[24] = second compound 0.316 µM, first compound 10 µM
[25] = second compound 1 µM, first compound 0.0316 µM
[26] = second compound 1 µM, first compound 0.1 µM
[27] = second compound 1 µM, first compound 0.316 µM
[28] = second compound 1 µM, first compound 1 µM
[29] = second compound 1 µM, first compound 3.16 µM
[30] = second compound 1 µM, first compound 10 µM
[31] = second compound 3.16 µM, first compound 0.0316 µM
[32] = second compound 3.16 µM, first compound 0.1 µM
[33] = second compound 3.16 µM, first compound 0.316 µM
[34] = second compound 3.16 µM, first compound 1 µM
[35] = second compound 3.16 µM, first compound 3.16 µM
[36] = second compound 3.16 µM, first compound 10 µM
[37] = second compound 10 µM, first compound 0.0316 µM
[38] = second compound 10 µM, first compound 0.1 µM
[39] = second compound 10 µM, first compound 0.316 µM
[40] = second compound 10 µM, first compound 1 µM
[41] = second compound 10 µM, first compound 3.16 µM
[42] = second compound 10 µM, first compound 10 µM
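Note: spheroids exposed to agents for 7 days before reading.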
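Throughout, for viability, T/C: luminescence signal used as a stand-in for viable cells.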

COc1cccc2c1C(=O)c1c(O)c3c(c(O)c1C2=O)CC(O)(C(=O)CO)CC3OC1CC(N)C(O)C(C)O1 (stereo not drawn) + CN1CCN(c2cc(C(=O)Nc3cc4cc(-c5cnn(C)c5)ccc4cn3)ccn2)CC1
active: viability, T/C [8] 7.2% | viability, T/C [9] 1.82% | viability, T/C [10] 0.52% | viability, T/C [11] 3.08% | viability, T/C [12] 7.38% | viability, T/C [14] 5.86% | viability, T/C [15] 1.2% | viability, T/C [16] 0.36% | viability, T/C [17] 4.01% | viability, T/C [18] 8.5% | viability, T/C [20] 4.88% | viability, T/C [21] 0.54% | viability, T/C [22] 0.77% | viability, T/C [23] 3.95% | viability, T/C [24] 9.46% | viability, T/C [25] 0.41% | viability, T/C [26] 0.53% | viability, T/C [27] 0.23% | viability, T/C [28] 1.24% | viability, T/C [29] 3.93% | viability, T/C [30] 8.63% | viability, T/C [31] 0.22% | viability, T/C [32] 0.41% | viability, T/C [33] 1.02% | viability, T/C [34] 1.45% | viability, T/C [35] 6.27% | viability, T/C [36] 9.38% | viability, T/C [37] 0.49% | viability, T/C [38] 0.33% | viability, T/C [39] 1.94% | viability, T/C [40] 0.34% | viability, T/C [41] 0.53% | viability, T/C [42] 0.18%
inactive: viability, T/C [7] 16.3% | viability, T/C [13] 17.7% | viability, T/C [19] 15.2%
< 31.6 nM: IC50 [1] | IC50 [2] | IC50 [3] | IC50 [4] | IC50 [5] | IC50 [6]

C=CC(=O)Nc1cc(Nc2nccc(-c3cn(C)c4ccccc34)n2)c(OC)cc1N(C)CCN(C)C
inactive: viability, T/C (compound 0.000949 µM) 104% and 105% | viability, T/C (compound 0.003 µM) 84.7% and 99.9% | viability, T/C (compound 0.00949 µM) 85.3% and 108% | viability, T/C (compound 0.03 µM) 85.4% and 97.6% | viability, T/C (compound 0.0949 µM) 78% and 77.1% | viability, T/C (compound 0.3 µM) 50% and 62%
> 300 nM: IC50 (curve of compound)

COc1ccc([C@@H](O)c2cc(-c3ncnc4cc(N5CCOCC5)ccc34)c(F)cc2Cl)nn1 + CNC(=O)c1ccc(Nc2nc(OC3CCCC3)c3c(-c4ccc5nc(C)oc5c4)c[nH]c3n2)c(OC)c1
< 31.6 nM: IC50 [2] | IC50 [3] | IC50 [4] | IC50 [5] | IC50 [6]
1640 nM: IC50 [1]
inactive: viability, T/C [7] 93.6% | viability, T/C [8] 99.5% | viability, T/C [9] 92% | viability, T/C [10] 54.9% | viability, T/C [11] 49.6% | viability, T/C [12] 29.4% | viability, T/C [13] 36.8% | viability, T/C [14] 33.5% | viability, T/C [15] 40.5% | viability, T/C [16] 35% | viability, T/C [17] 26.5% | viability, T/C [18] 19.5% | viability, T/C [19] 16.1% | viability, T/C [20] 14.4% | viability, T/C [21] 17.4% | viability, T/C [22] 16.6% | viability, T/C [23] 16.1% | viability, T/C [24] 13.6% | viability, T/C [25] 15.9% | viability, T/C [26] 18.2% | viability, T/C [27] 18.3% | viability, T/C [28] 15.9% | viability, T/C [29] 15.3% | viability, T/C [30] 15.5% | viability, T/C [31] 14.7% | viability, T/C [32] 17.8% | viability, T/C [33] 18.1% | viability, T/C [34] 16.2% | viability, T/C [35] 16.6% | viability, T/C [36] 15.5% | viability, T/C [37] 15.7% | viability, T/C [38] 13.2% | viability, T/C [39] 17.6% | viability, T/C [40] 15.7% | viability, T/C [41] 17.3% | viability, T/C [42] 15.4%

Nc1ccn(C2OC(CO)C(O)C2(F)F)c(=O)n1 (stereo not drawn) + CNC(=O)c1ccc(Nc2nc(OC3CCCC3)c3c(-c4ccc5nc(C)oc5c4)c[nH]c3n2)c(OC)c1
active: viability, T/C [7] 8.18% | viability, T/C [8] 3.36% | viability, T/C [9] 3.13% | viability, T/C [10] 2.68% | viability, T/C [11] 2.2% | viability, T/C [12] 1.72% | viability, T/C [13] 6.64% | viability, T/C [14] 4.51% | viability, T/C [15] 2.85% | viability, T/C [16] 2.62% | viability, T/C [17] 2.66% | viability, T/C [18] 2.22% | viability, T/C [19] 7.09% | viability, T/C [20] 3.96% | viability, T/C [21] 3.31% | viability, T/C [22] 2.62% | viability, T/C [23] 2.25% | viability, T/C [24] 1.52% | viability, T/C [25] 8.74% | viability, T/C [26] 4.85% | viability, T/C [27] 4.17% | viability, T/C [28] 3.63% | viability, T/C [29] 1.95% | viability, T/C [30] 1.24% | viability, T/C [31] 8.43% | viability, T/C [32] 6.12% | viability, T/C [33] 4.34% | viability, T/C [34] 3.36% | viability, T/C [35] 3.71% | viability, T/C [36] 1.58% | viability, T/C [37] 9.23% | viability, T/C [38] 7.84% | viability, T/C [39] 5.26% | viability, T/C [40] 3.45% | viability, T/C [41] 2.47% | viability, T/C [42] 1.32%
< 31.6 nM: IC50 [1] | IC50 [2] | IC50 [3] | IC50 [4] | IC50 [5] | IC50 [6]
